# Literature values as cited in patent publication US20100316580A1, “ORAL CARE PRODUCT AND METHODS OF USE THEREOF” (Colgate-Palmolive Company, priority 2008, published 2010).
smiles,measurement,value
"Oc1cc(Cl)ccc1Oc1ccc(Cl)cc1Cl [triclosan, 5-chloro-2-(2,4-dichlorophenoxyphenol]",solubility in water,only slightly soluble
